Test results: US9725465B2, “Biaryl acetamide compounds and methods of use thereof” (Ambit Biosciences Corporation, priority 2013, dated 2017)

Assays:
FLT3 kinase = FLT3 kinase (Homo sapiens (Human), UniProt P36888); assay: Competition binding assay (Kd), FLT3; details: competition binding
KIT kinase = KIT kinase (Homo sapiens (Human), UniProt P10721); assay: Competition binding assay (Kd), KIT; details: competition binding
Description: In certain embodiments, competition binding assays were performed as described in Fabian et al., Nature Biotechnology 2005, 23, 329-336.
Competition binding assays used herein were developed, validated and performed as described in Fabian et al., Nature Biotechnology 2005, 23, 329-336. Kinases were produced as fusions to T7 phage (See, Fabian et al. or WO04/015142) or alternatively, the kinases were expressed in HEK-293 cells and subsequently tagged with DNA for PCR detection (See, WO08/005,310). […] The liganded beads were blocked with excess biotin and washed with blocking buffer (SeaBlock (Pierce), 1% BSA, 0.05% Tween 20, 1 mM DTT) to remove unbound ligand and to reduce non-specific binding. […] Test compounds were prepared as 100× stocks in DMSO and diluted into the aqueous environment. Kds were determined using an eleven point threefold serial dilutions. DMSO or control compounds were was added to control assays lacking a test compound. […] The kinase concentration in the eluates was measured by quantitative PCR. […]

Chain of KIT kinase (P10721 26-976): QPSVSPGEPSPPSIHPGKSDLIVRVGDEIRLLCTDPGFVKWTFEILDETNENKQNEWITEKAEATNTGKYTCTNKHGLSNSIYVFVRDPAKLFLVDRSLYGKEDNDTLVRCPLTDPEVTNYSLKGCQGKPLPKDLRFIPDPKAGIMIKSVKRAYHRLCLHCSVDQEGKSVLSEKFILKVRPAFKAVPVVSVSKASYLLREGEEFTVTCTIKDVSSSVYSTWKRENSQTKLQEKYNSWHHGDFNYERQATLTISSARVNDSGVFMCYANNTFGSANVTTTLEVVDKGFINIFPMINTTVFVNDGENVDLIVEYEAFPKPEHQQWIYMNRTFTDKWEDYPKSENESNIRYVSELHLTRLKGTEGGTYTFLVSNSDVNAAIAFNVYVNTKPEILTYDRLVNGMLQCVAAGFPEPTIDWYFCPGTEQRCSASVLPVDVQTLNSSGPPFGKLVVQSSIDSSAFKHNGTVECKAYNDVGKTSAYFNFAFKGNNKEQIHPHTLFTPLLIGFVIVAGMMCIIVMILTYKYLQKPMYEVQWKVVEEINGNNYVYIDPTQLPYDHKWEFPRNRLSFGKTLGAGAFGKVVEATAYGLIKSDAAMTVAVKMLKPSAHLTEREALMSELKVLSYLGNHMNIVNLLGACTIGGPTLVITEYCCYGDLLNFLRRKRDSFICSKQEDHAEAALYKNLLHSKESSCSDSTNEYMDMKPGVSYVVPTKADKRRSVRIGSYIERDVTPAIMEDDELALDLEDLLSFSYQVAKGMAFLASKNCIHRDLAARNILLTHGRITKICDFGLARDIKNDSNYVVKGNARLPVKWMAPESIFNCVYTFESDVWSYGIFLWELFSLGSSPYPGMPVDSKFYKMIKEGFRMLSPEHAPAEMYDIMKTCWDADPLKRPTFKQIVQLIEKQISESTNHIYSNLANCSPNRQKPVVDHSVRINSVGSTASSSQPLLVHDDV
Chain of FLT3 kinase (P36888 27-993): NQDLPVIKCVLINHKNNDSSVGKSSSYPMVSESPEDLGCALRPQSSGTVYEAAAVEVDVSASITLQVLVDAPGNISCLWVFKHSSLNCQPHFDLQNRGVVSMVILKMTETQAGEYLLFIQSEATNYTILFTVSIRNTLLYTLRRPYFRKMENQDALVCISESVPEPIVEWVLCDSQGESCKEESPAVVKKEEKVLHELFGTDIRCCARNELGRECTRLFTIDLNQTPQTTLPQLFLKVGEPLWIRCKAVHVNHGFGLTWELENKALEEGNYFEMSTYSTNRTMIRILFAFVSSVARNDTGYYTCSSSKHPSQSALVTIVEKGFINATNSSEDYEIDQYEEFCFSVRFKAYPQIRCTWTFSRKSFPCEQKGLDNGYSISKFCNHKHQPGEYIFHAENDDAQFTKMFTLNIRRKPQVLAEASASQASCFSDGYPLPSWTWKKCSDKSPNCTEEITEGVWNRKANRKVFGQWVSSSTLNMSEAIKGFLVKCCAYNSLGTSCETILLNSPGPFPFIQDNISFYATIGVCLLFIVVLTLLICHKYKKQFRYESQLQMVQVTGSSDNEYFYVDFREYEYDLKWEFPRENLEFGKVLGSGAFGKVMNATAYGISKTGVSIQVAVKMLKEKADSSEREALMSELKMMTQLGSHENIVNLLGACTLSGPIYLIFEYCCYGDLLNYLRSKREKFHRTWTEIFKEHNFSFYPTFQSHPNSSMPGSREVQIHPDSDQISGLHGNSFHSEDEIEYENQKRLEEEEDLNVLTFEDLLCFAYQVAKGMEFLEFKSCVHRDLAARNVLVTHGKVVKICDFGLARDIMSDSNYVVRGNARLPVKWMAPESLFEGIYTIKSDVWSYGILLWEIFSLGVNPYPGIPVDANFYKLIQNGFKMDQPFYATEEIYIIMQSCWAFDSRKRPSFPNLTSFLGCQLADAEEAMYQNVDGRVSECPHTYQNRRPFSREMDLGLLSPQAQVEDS

| Kd (FLT3 kinase) [nM] | Kd (KIT kinase) [nM] | Compound |
| --- | --- | --- |
| < 5 | < 5 | COc1cc2ncc(-c3ccc(CC(=O)Nc4cc(C5(C(F)(F)F)CC5)on4)c(F)c3)cc2cc1OCCN [Example 192, 2-[4-[6-(2-aminoethoxy)-7-methoxy-3-quinolyl]-2-fluoro-phenyl]-N-[5-[1-(trifluoromethyl)cyclo-propyl]isoxazol-3-yl]acetamide] |
| < 5 | < 5 | COc1cc2ncc(-c3ccc(CC(=O)Nc4cc(C5(C(F)(F)F)CC5)on4)c(F)c3)cc2cc1OCCNC(C)=O [Example 193, 2-[4-[6-(2-acetamidoethoxy)-7-methoxy-3-quinolyl]-2-fluoro-phenyl]-N-[5-[1-(trifluoromethyl)cyclo-propyl]isoxazol-3-yl]acetamide] |
| < 5 | < 5 | COc1cc2nc(-c3ccc(CC(=O)Nc4cc(C5(C(F)(F)F)CC5)on4)c(F)c3)cnc2cc1OCCCO [Example 195, 2-[2-fluoro-4-[6-(3-hydroxypropoxy)-7-methoxy-quinoxalin-2-yl]phenyl]-N-[5-[1-(trifluoromethyl)cyclo-propyl]isoxazol-3-yl]acetamide] |
| < 5 | < 5 | CNCCOc1cc2nc(-c3ccc(CC(=O)Nc4cc(C(C)(C)C(F)(F)F)on4)c(F)c3)cnc2cc1OC [Example 196, 2-[2-fluoro-4-[6-methoxy-7-[2-(methyl-amino)ethoxy]quinoxalin-2-yl]phenyl]-N-[5-(2,2,2-trifluoro-1,1-dimethyl-ethyl)isoxazol-3-yl]acetamide] |
| < 5 | < 5 | COc1cc2cc(-c3ccc(CC(=O)Nc4cc(C(C)(C)C(F)(F)F)on4)c(F)c3)cnc2cc1OCCNCCO [Example 201, 2-[2-fluoro-4-[7-[2-(2-hydroxyethylamino)ethoxy]-6-methoxy-3-quinolyl]phenyl]-N-[5-(2,2,2-trifluoro-1,1-dimethyl-ethyl)isoxazol-3-yl]acetamide] |
| < 5 | < 5 | COc1cc2ncc(-c3ccc(CC(=O)Nc4cc(C5(C(F)(F)F)CC5)on4)c(F)c3)nc2cc1OC[C@@H](C)O [Example 202, 2-[2-fluoro-4-[7-[(2R)-2-hydroxypropoxy]-6-methoxy-quinoxalin-2-yl]phenyl]-N-[5-[1-(trifluoromethyl)cyclo-propyl]isoxazol-3-yl]acetamide] |
| < 5 | < 5 | COc1cc2ncc(-c3ccc(CC(=O)Nc4cc(C(C)(C)C(F)(F)F)on4)c(F)c3)nc2cc1OCCCN1CCOCC1 [Example 203, 2-[2-fluoro-4-[6-methoxy-7-(3-morpholino-propoxy)quinoxalin-2-yl]phenyl]-N-[5-(2,2,2-trifluoro-1,1-dimethyl-ethyl)isoxazol-3-yl]acetamide] |
| < 5 | < 5 | COc1cc2ncc(-c3ccc(CC(=O)Nc4cc(C(C)(C)C(F)(F)F)on4)c(F)c3)cc2cc1OCCN1CCC(O)CC1 [Example 206, 2-[2-fluoro-4-[6-[2-(4-hydroxy-1-piperidyl)ethoxy]-7-methoxy-3-quinolyl]phenyl]-N-[5-(2,2,2-trifluoro-1,1-dimethyl-ethyl)isoxazol-3-yl]acetamide] |
| < 5 | < 5 | COc1cc2nc(-c3ccc(CC(=O)Nc4cc(C5(C(F)(F)F)CC5)on4)c(F)c3)cnc2cc1OC[C@@H](C)O [Example 208, 2-[2-fluoro-4-[6-[(2R)-2-hydroxypropoxy]-7-methoxy-quinoxalin-2-yl]phenyl]-N-[5-[1-(trifluoro-methyl)cyclopropyl]isoxazol-3-yl]acetamide] |
| < 5 | < 5 | COc1cc2nc(-c3ccc(CC(=O)Nc4cc(C(C)(C)C(F)(F)F)on4)c(F)c3)cnc2cc1OCCCN1CCOCC1 [Example 209, 2-[2-fluoro-4-[7-methoxy-6-(3-morpholino-propoxy)quinoxalin-2-yl]phenyl]-N-[5-(2,2,2-trifluoro-1,1-dimethyl-ethyl)isoxazol-3-yl]acetamide] |
| < 5 | < 5 | COc1cc2nc(-c3ccc(CC(=O)Nc4cc(C(C)(C)C(F)(F)F)on4)c(F)c3)cnc2cc1OCCn1cncn1 [Example 210, 2-[2-fluoro-4-[7-methoxy-6-[2-(1,2,4-triazol-1-yl)ethoxy]quinoxalin-2-yl]phenyl]-N-[5-(2,2,2-trifluoro-1,1-dimethyl-ethyl)isoxazol-3-yl]acetamide] |
| < 5 | < 5 | COc1cc2ncc(-c3ccc(CC(=O)Nc4cc(C5(C(F)(F)F)CC5)on4)c(F)c3)nc2cc1OCCCN1CCOCC1 [Example 213, 2-[2-fluoro-4-[6-methoxy-7-(3-morpholino-propoxy)quinoxalin-2-yl]phenyl]-N-[5-[1-(trifluoro-methyl)cyclopropyl]isoxazol-3-yl]acetamide] |
| < 5 | < 5 | COc1cc2ncc(-c3ccc(CC(=O)Nc4cc(C5(C(F)(F)F)CC5)on4)c(F)c3)nc2cc1OCCCNC(C)=O [Example 214, 2-[4-[7-(3-acetamidopropoxy)-6-methoxy-quinoxalin-2-yl]-2-fluoro-phenyl]-N-[5-[1-(trifluoromethyl)cyclo-propyl]isoxazol-3-yl]acetamide] |

Second part, the compound before the results:

| Compound | Kd (FLT3 kinase) [nM] | Kd (KIT kinase) [nM] |
| --- | --- | --- |
| COc1cc2ncc(-c3ccc(CC(=O)Nc4cc(C(C)(C)C(F)(F)F)on4)c(F)c3)nc2cc1OCCN1CC[C@H](O)C1 [Example 191, 2-[2-fluoro-4-[7-[2-[(3S)-3-hydroxypyrrolidin-1-yl]ethoxy]-6-methoxy-quinoxalin-2-yl]phenyl]-N-[5-(2,2,2-trifluoro-1,1-dimethyl-ethyl)isoxazol-3-yl]acetamide] | < 5 | < 5 |
| COc1cc2ncc(-c3ccc(CC(=O)Nc4cc5n(n4)CCC5(C)C)c(F)c3)nc2cc1OC [Example 194, 2-[4-(6,7-dimethoxyquinoxalin-2-yl)-2-fluoro-phenyl]-N-(4,4-dimethyl-5,6-dihydropyrrolo[1,2-b]pyrazol-2-yl)acetamide] | < 5 | < 5 |
| COc1cc2cc(-c3ccc(CC(=O)Nc4cc(C(C)(C)C(F)(F)F)on4)c(F)c3)cnc2cc1OCCN1CCOCC1 [Example 197, 2-[2-fluoro-4-[6-methoxy-7-(2-morpholinoethoxy)-3-quinolyl]phenyl]-N-[5-(2,2,2-trifluoro-1,1-dimethyl-ethyl)isoxazol-3-yl]acetamide] | < 5 | < 5 |
| COc1cc2ncc(-c3ccc(CC(=O)Nc4cc(C(C)(C)C(F)(F)F)on4)c(F)c3)nc2cc1OCCN(C)C(C)=O [Example 198, 2-[4-[7-[2-[acetyl(methyl)amino]ethoxy]-6-methoxy-quinoxalin-2-yl]-2-fluoro-phenyl]-N-[5-(2,2,2-trifluoro-1,1-dimethyl-ethyl)isoxazol-3-yl]acetamide] | < 5 | < 5 |
| COc1cc2cc(-c3ccc(CC(=O)Nc4cc(C(C)(C)C(F)(F)F)on4)c(F)c3)cnc2cc1OCCN1CC[C@@H](O)C1 [Example 199, 2-[2-fluoro-4-[7-[2-[(3R)-3-hydroxypyrrolidin-1-yl]ethoxy]-6-methoxy-3-quinolyl]phenyl]-N-[5-(2,2,2-trifluoro-1,1-dimethyl-ethyl)isoxazol-3-yl]acetamide] | < 5 | < 5 |
| COc1cc2cc(-c3ccc(CC(=O)Nc4cc(C(C)(C)C(F)(F)F)on4)c(F)c3)cnc2cc1OCCN(C)CCO [Example 200, 2-[2-fluoro-4-[7-[2-[2-hydroxy-ethyl(methyl)amino]ethoxy]-6-methoxy-3-quinolyl]phenyl]-N-[5-(2,2,2-trifluoro-1,1-dimethyl-ethyl)isoxazol-3-yl]acetamide] | < 5 | < 5 |
| COc1cc2ncc(-c3ccc(CC(=O)Nc4cc(C(C)(C)C(F)(F)F)on4)c(F)c3)cc2cc1OCCN [Example 204, 2-[4-[6-(2-aminoethoxy)-7-methoxy-3-quinolyl]-2-fluoro-phenyl]-N-[5-(2,2,2-trifluoro-1,1-dimethyl-ethyl)isoxazol-3-yl]acetamide] | < 5 | < 5 |
| COc1cc2ncc(-c3ccc(CC(=O)Nc4cc(C(C)(C)C(F)(F)F)on4)c(F)c3)cc2cc1OCCNC(C)=O [Example 205, 2-[4-[6-(2-acetamidoethoxy)-7-methoxy-3-quinolyl]-2-fluoro-phenyl]-N-[5-(2,2,2-trifluoro-1,1-dimethyl-ethyl)isoxazol-3-yl]acetamide] | < 5 | < 5 |
| COc1cc2ncc(-c3ccc(CC(=O)Nc4cc(C(C)(C)C(F)(F)F)on4)c(F)c3)cc2cc1OCCN1CCC(F)(F)CC1 [Example 207, 2-[4-[6-[2-(4,4-difluoro-1-piperidyl)ethoxy]-7-methoxy-3-quinolyl]-2-fluoro-phenyl]-N-[5-(2,2,2-trifluoro-1,1-dimethyl-ethyl)isoxazol-3-yl]acetamide] | < 5 | 20 to 50 |
| COc1cc2nc(-c3ccc(CC(=O)Nc4cc(C(C)(C)C(F)(F)F)on4)c(F)c3)cnc2cc1OCCn1cnnc1 [Example 211, 2-[2-fluoro-4-[7-methoxy-6-[2-(1,2,4-triazol-4-yl)ethoxy]quinoxalin-2-yl]phenyl]-N-[5-(2,2,2-trifluoro-1,1-dimethyl-ethyl)isoxazol-3-yl]acetamide] | < 5 | < 5 |
| COc1cc2nc(-c3ccc(CC(=O)Nc4cc(C5(C(F)(F)F)CC5)on4)c(F)c3)cnc2cc1OCCCN1CCOCC1 [Example 212, 2-[2-fluoro-4-[7-methoxy-6-(3-morpholino-propoxy)quinoxalin-2-yl]phenyl]-N-[5-[1-(trifluoro-methyl)cyclopropyl]isoxazol-3-yl]acetamide] | < 5 | < 5 |
